Values joined by “and” are separate entries in the source; they are usually repeats but may differ in a detail not shown here. Equal values may be shown once. Read-outs that look alike come from different tables or passages of the source.

One test deals with BCL-XL (Homo sapiens (Human), UniProt Q07817). Kind of test: Protein-protein interaction assay BCL-XL/Bad BH3 peptide (BCL-XL assay), TR-FRET. The format is binding. Conditions: median. The procedure:
Assay 2 Protein-Protein Interaction Assay: BCL-XL/Bad BH3 Peptide (BCL-XL Assay)
The dose-dependent inhibition by the compounds described in this invention of the interaction between BCL-XL and the BH3 domain of Bad (both human) was determined using a steady state binding competition assay with time-resolved fluorescence energy transfer (TR-FRET) readout. For that purpose BCL-XL (amino acids 1-212, C-terminal fused to a hexahistidine (6× His) tag (SEQ ID 3) and a synthetic Bad BH3-derived peptide of sequence Biotin-PEG2-PEG2-NLWAAQRYGRELRR-Nle-SDEFVDSFKK-amide (SEQ ID 4) served as protein receptor and tracer ligand respectively. The recombinant BCL-XL protein (expressed in Ecol) was purchased from BPS Bioscience (San Diego, Calif., USA). The Bad BH3-derived peptide can be obtained from e.g. Biosyntan (Berlin, Germany).
In the assay 11 different concentrations of each compound (0.1 nM, 0.33 nM, 1.1 nM, 3.8 nM, 13 nM, 44 nM, 0.15 μM, 0.51 μM, 1.7 μM, 5.9 μM and 20 μM) were typically measured as duplicates in the same microtiter plate. For that, 100-fold concentrated DMSO solutions were prepared by serial dilutions (1:3.4) of a 2 mM stock solution in a clear, 384-well microtiter plate (Greiner Bio-One, Frickenhausen, Germany). From there, 50 nl were transferred in a dark test plate (Greiner Bio-One, Frickenhausen, Germany). The assay was initiated by addition of 2 μl of a 2,5-fold concentrated His-BCL-XL solution (usually for a 1 nM end concentration in 5 μl reaction volume) in aqueous assay buffer [50 mM Tris/HCl pH 7, 100 mM sodium chloride (NaCl), 50 μM potassium fluoride (KF), 0.005% Tween-20, 2 mM DTT, 0.1% bovine gamma globulin (BGG)] to the compounds in the assay plate. This was followed by a 10-minute incubation step at 22° C. for pre-equilibration of the putative complex between His-BCL-XL and the compounds. After that, 3 μl of a 1.67-fold concentrated solution (in assay buffer) consisting of Bad BH3-derived peptide (1 nM end concentration) and TR-FRET detection reagents [1.67 nM anti-His-Eu cryptate and 1.67 nM streptavidin-XL665 (both from Cisbio Bioassays, Codolet, France)], were added.
The mixture was incubated in the dark for one hour at 22° C. and then overnight at 4° C. The formation of BCL-XL/Bad complexes was determined by measuring the resonance energy transfer of the anti-His-Eu-cryptate antibody to the streptavidin-XL665 present in the reaction. For that purpose, the fluorescence emission at 620 nm and 665 nm after excitation at 330-350 nm was measured in a TR-FRET measuring instrument, for instance a Rubystar or a Pherastar (both from BMG Lab Technologies, Offenburg, Germany) or a Viewlux (Perkin-Elmer). The ratio of the emission at 665 nm and at 622 nm was used as indicator of the amount of BCL-XL/Bad complexes present.
The resulting data (ratio) were normalized, taking 0% inhibition as the mean value of control measurements (usually 32 data points) where all reagents were included. In this case 50 nl DMSO were used instead of compounds. A 100% inhibition corresponded to the mean value of control measurements (usually 32 data points) where all reagents except BCL-XL were included. IC50 values were determined by regression analysis based on a 4 parameter equation (minimum, maximum, IC50, Hill; Y=Max+(Min−Max)/(1+(X/IC50)^Hill) using the Screener Software (Genedata).
On the technique in general: Time-resolved FRET reads energy transfer from a long-lived donor to a nearby acceptor.

In the next test the test system is SUDHL5. The experiment in a line: Antiproliferation assay SUDHL5 (Assay 7). It is filed as cell-based. The conditions noted are these: SUDHL5 cells, CellTiter-Glo, median, read-out: IC50 Antiproli SUDHL5 [M] (median). The procedure, abridged: (§1)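 Cells plated in treatment plates plus a day 0 reference plate; incubated 72 h at 37 °C; CellTiter-Glo added, 10 min incubation, luminescence read; day 0 plate read at time zero.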

Another test has as its system AMO-1. The experiment in a line: Antiproliferation assay AMO-1 (Assay 7). It is filed as cell-based. Conditions: AMO-1 cells, CellTiter-Glo, single determinations, read-out: IC50 Antiproli AMO-1. Put shortly:
as §1

Sequence of BCL-XL (Q07817 1-212): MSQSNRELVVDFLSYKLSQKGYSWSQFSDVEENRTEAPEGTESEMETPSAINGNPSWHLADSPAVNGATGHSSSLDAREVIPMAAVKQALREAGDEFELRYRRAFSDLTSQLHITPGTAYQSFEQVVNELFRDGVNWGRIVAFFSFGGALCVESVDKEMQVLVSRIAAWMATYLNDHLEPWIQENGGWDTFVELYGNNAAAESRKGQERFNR

What is called IC50 is the midpoint of a concentration-inhibition curve. On to “(rac)-1-(3-((2,3-dihydro-1H-inden-4-yl)oxy)propyl)-12-ethyl-13-fluoro-11-methyl-4,5,6,7,9,11-hexahydropyrazolo[4′,3′:9,10][1]oxa[6]azacycloundecino[8,7,6-hi]indole-2-carboxylic acid [Example 30]”, for which the figures for the 50% inhibitory concentration (IC50) at BCL-XL, in the test on SUDHL5 (72 h) and with AMO-1 (72 h) were greater than 20000 nM, 1.5e-06 M and 1690 nM, respectively.

Take `CCc1c2c(nn1C)COCCCCn1c(C(=O)O)c(CCCOc3cccc4c3CCCC4)c3ccc(F)c-2c31` (racemic) [Example 29, (rac)-12-ethyl-13-fluoro-11-methyl-1-(3-((5,6,7,8-tetrahydronaphthalen-1-yl)oxy)propyl)-4,5,6,7,9,11-hexahydropyrazolo[4′,3′:9,10][1]oxa[6]azacycloundecino[8,7,6-hi]indole-2-carboxylic acid]: the IC50 was greater than 20000 nM on BCL-XL; 1.4e-06 M in the test with SUDHL5 (Homo sapiens, SU-DHL-5, 72 h); 2440 nM in the test with AMO-1 (Homo sapiens, AMO1, 72 h).

On to `Cc1c2c(nn1C)COCCCCn1c(C(=O)O)c(CCCOc3cccc4c3CCCC4)c3ccc(F)c-2c31` (racemic) [Example 18, (rac)-13-fluoro-11,12-dimethyl-1-(3-((5,6,7,8-tetrahydronaphthalen-1-yl)oxy)propyl)-4,5,6,7,9,11-hexahydropyrazolo[4′,3′:9,10][1]oxa[6]azacycloundecino[8,7,6-hi]indole-2-carboxylic acid], for which the 50% inhibitory concentration (IC50) on BCL-XL was greater than 20000 nM; with SUDHL5 (Homo sapiens, SU-DHL-5, 72 h), 1.2e-06 M; in the test with AMO-1 (72 h), 2160 nM and 3190 nM; with AMO-1 (Homo sapiens, AMO1, 72 h), 3980 nM.

With `Cc1nn(C)c2c1-c1c(F)ccc3c(CCCOc4cccc5cc(F)ccc45)c(C(=O)O)n(c13)CCCCOC2` (racemic) [Example 32, (rac)-13-fluoro-1-(3-((6-fluoronaphthalen-1-yl)oxy)propyl)-10,12-dimethyl-4,5,6,7,9,10-hexahydropyrazolo[4′,3′:9,10][1]oxa[6]azacycloundecino[8,7,6-hi]indole-2-carboxylic acid], the 50% inhibitory concentration (IC50) against BCL-XL was greater than 20000 nM; with SUDHL5 (Homo sapiens, SU-DHL-5, 72 h), 8.5e-07 M; in the test with AMO-1 (72 h), 4270 nM; with AMO-1 (Homo sapiens, AMO1, 72 h) it was 3980 nM.

Regarding `Cc1c2c(nn1C)COCCCCn1c(C(=O)O)c(CCCOc3cccc4c3CCC4)c3ccc(F)c-2c31` (racemic) [Example 19, (rac)-1-(3-((2,3-dihydro-1H-inden-4-yl)oxy)propyl)-13-fluoro-11,12-dimethyl-4,5,6,7,9,11-hexahydropyrazolo[4′,3′:9,10][1]oxa[6]azacycloundecino[8,7,6-hi]indole-2-carboxylic acid], the IC50 against BCL-XL is greater than 20000 nM; in the test on SUDHL5 (Homo sapiens, SU-DHL-5, 72 h) it was 1e-06 M; with AMO-1 (72 h) it was 4060 nM; with AMO-1 (Homo sapiens, AMO1, 72 h), 2620 nM.

Take `Cc1c2c(nn1C)COCCCCn1c(C(=O)O)c(CCCOc3ccc(F)c4ccccc34)c3ccc(F)c-2c31` (single isomer, unassigned; enantiomer 1) [Example 16, 4-fluoro-7-{3-[(4-fluoronaphthalen-1-yl)oxy]propyl}-2,3-dimethyl-2,10,11,12,13,15-hexahydro-pyrazolo[4′,3′:9,10][1,6]oxazacycloundecino[8,7,6-hi]indole-8-carboxylic acid (enantiomer 1)]: the half-maximal inhibitory concentration (IC50) on BCL-XL is greater than 20000 nM; in the test with SUDHL5 (72 h), 9.3e-07 M; in the test on AMO-1 (72 h), 6950 nM.

For `CCc1nn(C)c2c1-c1c(F)ccc3c(CCCOc4cccc5c4CCCC5)c(C(=O)O)n(c13)CCCCOC2` (racemic) [Example 44, (rac)-12-ethyl-13-fluoro-10-methyl-1-(3-((5,6,7,8-tetrahydronaphthalen-1-yl)oxy)propyl)-4,5,6,7,9,10-hexahydropyrazolo[4′,3′:9,10][1]oxa[6]azacycloundecino[8,7,6-hi]indole-2-carboxylic acid], the IC50 against BCL-XL was greater than 20000 nM; in the test with SUDHL5 (Homo sapiens, SU-DHL-5, 72 h) it was 5.5e-07 M; in the test with AMO-1 (Homo sapiens, AMO1, 72 h), 7410 nM.

With `CCc1c2c(nn1C)COCCCCn1c(C(=O)O)c(CCCOc3cccc4cc(F)ccc34)c3ccc(F)c-2c31` (single isomer, unassigned; enantiomer 1) [Example 24, 3-ethyl-4-fluoro-7-{3-[(6-fluoronaphthalen-1-yl)oxy]propyl}-2-methyl-2,10,11,12,13,15-hexahydropyrazolo[4′,3′:9,10][1,6]oxazacycloundecino[8,7,6-hi]indole-8-carboxylic acid (enantiomer 1)], the IC50 was greater than 20000 nM against BCL-XL, 3.2e-07 M with SUDHL5 (72 h) and 878 nM in the test with AMO-1 (72 h).

Consider `Cc1c2c(nn1C)CNCCCCn1c(C(=O)O)c(CCCOc3cccc4ccccc34)c3ccc(F)c-2c31` (single isomer, unassigned; enantiomer 1) [Example 48, 4-fluoro-2,3-dimethyl-7-{3-[(naphthalen-1-yl)oxy]propyl}-10,11,12,13,14,15-hexahydro-2H-pyrazolo[3′,4′:8,9][1,6]diazacycloundecino[10,11,1-hi]indole-8-carboxylic acid (enantiomer 1)], for which the IC50 against BCL-XL is greater than 20000 nM; with SUDHL5 (72 h), 1.4e-06 M; in the test with AMO-1 (72 h), 2860 nM.

As to `CCc1nn(C)c2c1-c1c(F)ccc3c(CCCOc4cccc5c4CCC5)c(C(=O)O)n(c13)CCCCOC2` (racemic) [Example 45, (rac)-1-(3-((2,3-dihydro-1H-inden-4-yl)oxy)propyl)-12-ethyl-13-fluoro-10-methyl-4,5,6,7,9,10-hexahydropyrazolo[4′,3′:9,10][1]oxa[6]azacycloundecino[8,7,6-hi]indole-2-carboxylic acid], the IC50 was greater than 20000 nM against BCL-XL; 1.9e-06 M in the test on SUDHL5 (Homo sapiens, SU-DHL-5, 72 h); 6450 nM with AMO-1 (Homo sapiens, AMO1, 72 h).

For the origin of these results see US11286263B2, “Macrocyclic fluorine substituted indole derivatives” (The Broad Institute, Inc., priority 2017, dated 2022).
